In publication PMC8260145 (Archives of biochemistry and biophysics, 2021):
Where “and” joins values, the source holds several entries; their conditions need not be identical. Identical values can stand only once. Like-named read-outs stand apart in the source and are kept apart here.

What was measured:
[1] = test system: CYP2A6; settings: cited from earlier work
[2] = test system: human liver microsomes; format: in vitro ADME
[3] = target: T1, recombinant human CYP2B6 (Homo sapiens, UniProt P20813); test: C152 demethylation, continuous fluorometric assay, Supersomes SS; format: in vitro ADME; settings: SS(2B6)
T1 sequence (P20813 1-491): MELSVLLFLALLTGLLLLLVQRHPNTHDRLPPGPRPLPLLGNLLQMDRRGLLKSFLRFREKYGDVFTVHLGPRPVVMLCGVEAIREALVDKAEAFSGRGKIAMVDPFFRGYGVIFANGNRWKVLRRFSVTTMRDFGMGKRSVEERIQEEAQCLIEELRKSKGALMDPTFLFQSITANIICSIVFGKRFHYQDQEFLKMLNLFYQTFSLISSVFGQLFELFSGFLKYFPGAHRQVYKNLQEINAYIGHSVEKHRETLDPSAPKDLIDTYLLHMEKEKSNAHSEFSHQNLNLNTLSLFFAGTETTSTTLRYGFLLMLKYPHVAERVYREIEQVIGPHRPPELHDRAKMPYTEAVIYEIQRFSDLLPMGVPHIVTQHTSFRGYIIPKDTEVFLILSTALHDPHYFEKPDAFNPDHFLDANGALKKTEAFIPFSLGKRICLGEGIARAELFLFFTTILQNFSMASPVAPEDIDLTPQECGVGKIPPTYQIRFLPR

[4] = test system: CYP2E1; settings: cited from earlier work
[5] = test system: CYP2C8; settings: cited from earlier work
[6] = target: T2, recombinant human CYP3A5 (Homo sapiens, UniProt P20815); test: C152 demethylation, continuous fluorometric assay, Supersomes SS; format: in vitro ADME; settings: SS(3A5)
[7] = target: T3, recombinant human CYP2C19 (Homo sapiens, UniProt P33261); test: as above; format: in vitro ADME; settings: SS(2C19)
[8] = test system: recombinant human CYP3A4; test: as above; format: in vitro ADME
[9] = test system: human liver microsomes; test: Inhibition of C152 metabolism in human liver microsomes; format: biochemical; settings: 30 μM C152; for IC50: read-out: IC50 ((+)-N-3-Benzylnirvanol)
[10] = target: T4, recombinant human CYP3A4 (Homo sapiens, UniProt P08684); test: Inhibition of C152 metabolism in SS
[11] = target: T1, recombinant human CYP2B6; test: Inhibition of C152 metabolism in SS
[12] = target: T2, recombinant human CYP3A5; test: Inhibition of C152 metabolism in SS; settings: SS(3A5), 30 μM C152
[13] = test system: CYP2A6; test: 7-hydroxylation of coumarin in HLM; format: in vitro ADME, human; settings: HLM(ODN), added CYP2A6 0
[14] = target: T4, recombinant human CYP3A4
[15] = target: T2, recombinant human CYP3A5; test: biochemical
[16] = target: T3, recombinant human CYP2C19; test: Inhibition of C152 metabolism in SS
[17] = HLM(FVT) + added CYP3A5 43 pmol/mg protein (molar ratio 0.125)
[18] = HLM(ODN) + added CYP3A5 54 pmol/mg protein (molar ratio 0.125)
[19] = N-demethylation of C152, HLM(ODN), added CYP2A6 0
[20] = N-demethylation of C152, HLM(ODN), added CYP2A6 54 pmol/mg protein (ratio 0.125)
[21] = N-demethylation of C152, HLM(ODN), added CYP2A6 108 pmol/mg protein (ratio 0.25)
[22] = N-demethylation of C152, HLM(ODN), added CYP2A6 216 pmol/mg protein (ratio 0.5)
[23] = N-demethylation of C152, HLM(ODN), added CYP2A6 433 pmol/mg protein (ratio 1)

T3 sequence (P33261 whole entry): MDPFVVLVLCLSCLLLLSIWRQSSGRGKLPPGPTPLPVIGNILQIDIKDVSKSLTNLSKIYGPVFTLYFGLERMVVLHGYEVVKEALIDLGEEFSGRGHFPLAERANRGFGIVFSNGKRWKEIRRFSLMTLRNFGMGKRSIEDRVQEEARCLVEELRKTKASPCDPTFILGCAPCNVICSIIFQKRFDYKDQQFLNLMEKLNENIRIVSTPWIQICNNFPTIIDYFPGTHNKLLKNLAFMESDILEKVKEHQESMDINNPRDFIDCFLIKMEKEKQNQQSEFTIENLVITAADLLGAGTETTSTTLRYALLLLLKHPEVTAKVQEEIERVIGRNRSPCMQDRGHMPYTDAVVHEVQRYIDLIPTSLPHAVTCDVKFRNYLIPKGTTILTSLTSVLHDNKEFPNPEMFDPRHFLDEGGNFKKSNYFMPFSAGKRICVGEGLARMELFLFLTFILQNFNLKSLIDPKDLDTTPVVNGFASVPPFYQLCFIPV
T4 sequence (P08684 2-503 limits assumed): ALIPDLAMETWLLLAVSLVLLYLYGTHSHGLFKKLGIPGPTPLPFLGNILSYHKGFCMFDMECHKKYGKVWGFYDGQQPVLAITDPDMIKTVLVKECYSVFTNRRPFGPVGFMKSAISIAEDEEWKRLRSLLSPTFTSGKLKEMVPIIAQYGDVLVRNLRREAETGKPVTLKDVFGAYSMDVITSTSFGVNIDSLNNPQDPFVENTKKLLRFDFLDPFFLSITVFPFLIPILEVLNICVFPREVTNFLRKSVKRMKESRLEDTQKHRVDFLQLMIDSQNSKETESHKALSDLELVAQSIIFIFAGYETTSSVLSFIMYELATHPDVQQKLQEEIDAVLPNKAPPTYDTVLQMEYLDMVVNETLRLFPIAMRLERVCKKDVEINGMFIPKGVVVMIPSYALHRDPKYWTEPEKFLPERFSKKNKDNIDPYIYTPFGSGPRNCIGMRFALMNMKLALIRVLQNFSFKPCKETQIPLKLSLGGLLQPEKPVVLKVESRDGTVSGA
T2 sequence (P20815 whole entry): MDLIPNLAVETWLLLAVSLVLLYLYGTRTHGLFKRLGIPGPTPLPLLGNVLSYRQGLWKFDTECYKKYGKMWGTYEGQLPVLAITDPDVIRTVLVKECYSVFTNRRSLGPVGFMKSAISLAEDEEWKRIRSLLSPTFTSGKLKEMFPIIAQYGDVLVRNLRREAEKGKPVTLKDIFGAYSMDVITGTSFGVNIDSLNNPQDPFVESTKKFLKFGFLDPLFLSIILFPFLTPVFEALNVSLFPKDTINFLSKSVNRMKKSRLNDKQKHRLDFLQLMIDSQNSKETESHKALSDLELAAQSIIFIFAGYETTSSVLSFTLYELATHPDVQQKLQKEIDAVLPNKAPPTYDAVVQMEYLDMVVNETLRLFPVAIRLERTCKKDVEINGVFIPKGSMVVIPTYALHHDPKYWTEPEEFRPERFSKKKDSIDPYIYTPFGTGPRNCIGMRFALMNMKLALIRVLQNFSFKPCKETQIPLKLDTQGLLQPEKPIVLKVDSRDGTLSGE

Structure (SMILES): CN(C)c1ccc2c(C(F)(F)F)cc(=O)oc2c1 [C152, 7-Dimethylamino-4-trifluromethylcoumarin]
- ability of CYP2A6 to catalyze demethylation of C152 [1]: lacks any ability to catalyze the demethylation of C152
- N (the Hill coefficient) [2, 17]: 1.41 ± 0.66
- S50 [2, 17]: 1.73 ± 0.66 µM
- Vmax [2, 17]: 20.9 ± 5.7 min⁻¹
- N (the Hill coefficient) ([2]; HLM(FVT)+CYP2E1): 1.28 ± 0.33
- S50 ([2]; HLM(FVT)+CYP2E1): 18.9 ± 1.2 µM
- Vmax ([2]; HLM(FVT)+CYP2E1): 20.6 ± 1.3 min⁻¹
- N (the Hill coefficient) ([2]; HLM(FVT), intact): 1.49 ± 0.67
- S50 ([2]; HLM(FVT), intact): 14.2 ± 1.0 µM
- Vmax ([2]; HLM(FVT), intact): 33.6 ± 2.1 min⁻¹
- N (the Hill coefficient) ([2]; HLM(IHG), intact): 1.03 ± 0.09
- S50 ([2]; HLM(IHG), intact): 4.7 ± 2.7 µM
- Vmax ([2]; HLM(IHG), intact): 46.3 ± 3.8 min⁻¹
- N (the Hill coefficient) ([2]; HLM(LBA)+CYP2E1): 1.14 ± 0.26
- S50 ([2]; HLM(LBA)+CYP2E1): 8.8 ± 2.1 µM
- Vmax ([2]; HLM(LBA)+CYP2E1): 62.6 ± 5.6 min⁻¹
- N (the Hill coefficient) ([2]; HLM(LBA), intact): 1.76 ± 0.33
- S50 ([2]; HLM(LBA), intact): 4.4 ± 1.5 µM
- Vmax ([2]; HLM(LBA), intact): 75.0 ± 10.6 min⁻¹
- N (the Hill coefficient) ([2]; HLM(LFJ)+CYP2E1): 1.37 ± 0.44
- S50 ([2]; HLM(LFJ)+CYP2E1): 11.6 ± 2.8 µM
- Vmax ([2]; HLM(LFJ)+CYP2E1): 44.7 ± 5.9 min⁻¹
- N (the Hill coefficient) ([2]; HLM(LFJ), intact): 1.94 ± 0.51
- S50 ([2]; HLM(LFJ), intact): 4.8 ± 1.2 µM
- Vmax ([2]; HLM(LFJ), intact): 47.8 ± 3.2 min⁻¹
- N (the Hill coefficient) ([2]; HLM(NQO), intact): 1.03 ± 0.05
- S50 ([2]; HLM(NQO), intact): 3.7 ± 1.9 µM
- Vmax ([2]; HLM(NQO), intact): 29.9 ± 3.6 min⁻¹
- N (the Hill coefficient) [2, 18]: 1.73 ± 0.69
- S50 [2, 18]: 1.83 ± 0.96 µM
- Vmax [2, 18]: 22.4 ± 1.3 min⁻¹
- N (the Hill coefficient) ([2]; HLM(ODN), intact): 1.40 ± 0.17
- S50 ([2]; HLM(ODN), intact): 3.3 ± 0.5 µM and 3.29 ± 0.53 µM
- Vmax ([2]; HLM(ODN), intact): 37.1 ± 10.2 min⁻¹
- N (the Hill coefficient) ([2]; HLM(S9)+CYP2E1): 1.16 ± 0.37
- S50 ([2]; HLM(S9)+CYP2E1): 3.2 ± 1.5 µM
- Vmax ([2]; HLM(S9)+CYP2E1): 6.6 ± 0.8 min⁻¹
- N (the Hill coefficient) ([2]; HLM(S9), intact): 1.27 ± 0.25
- S50 ([2]; HLM(S9), intact): 5.5 ± 2.9 µM
- Vmax ([2]; HLM(S9), intact): 17.8 ± 4.6 min⁻¹
- Km [2, 19]: 3.29 ± 0.53 µM
- N [2, 19]: 1.40 ± 0.17
- Vmax [2, 19]: 37.1 ± 10.2 min⁻¹
- Km [2, 20]: 11.4 ± 0.2 µM
- N [2, 20]: 1.30 ± 0.21
- Vmax [2, 20]: 29.1 ± 1.3 min⁻¹
- Km [2, 21]: 4.15 ± 1.33 µM
- N [2, 21]: 1.04 ± 0.05
- Vmax [2, 21]: 60.1 ± 10.9 min⁻¹
- Km [2, 22]: 6.88 ± 2.47 µM
- N [2, 22]: 1.14 ± 0.23
- Vmax [2, 22]: 56.2 ± 4.9 min⁻¹
- Km [2, 23]: 4.57 ± 2.57 µM
- N [2, 23]: 1.38 ± 0.24
- Vmax [2, 23]: 75.3 ± 25.2 min⁻¹
- S50 [3]: 1.8 ± 0.2 µM
- Vmax [3]: 44.2 ± 14.8 min⁻¹
- activity of CYP2E1 with C152 [4]: do not exhibit any activity
- S50 [5]: 12 ± 6 µM
- turnover [5]: 2.6 ± 0.8 min⁻¹
- S50 [6]: 16.4 ± 4.8 µM
- Vmax [6]: 8.8 ± 1.0 min⁻¹
- S50 [7]: 5.7 ± 1.1 µM
- Vmax [7]: 8.3 ± 3.4 min⁻¹
- N (the Hill coefficient) ([8]; SS(3A4)): 1.61 ± 0.24
- S50 ([8]; SS(3A4)): 4.5 ± 1.2 µM
- Vmax ([8]; SS(3A4)): 23.8 ± 4.2 min⁻¹
- N (the Hill coefficient) ([8]; SS(3A4)+CYP2E1): 1.28 ± 0.31
- S50 ([8]; SS(3A4)+CYP2E1): 10.2 ± 2.8 µM
- Vmax ([8]; SS(3A4)+CYP2E1): 34.0 ± 4.6 min⁻¹

Structure (SMILES): CC[C@@]1(c2ccccc2)NC(=O)N(Cc2ccccc2)C1=O [(+)-N-3-Benzylnirvanol, (S)-(+)-N-3-benzylnirvanol]
- Maximal inhibition ((+)-N-3-Benzylnirvanol) ([9]; HLM(FVT)): 62 ± 9%
- Maximal inhibition ((+)-N-3-Benzylnirvanol) ([9]; HLM(IHG)): 47 ± 12%
- Maximal inhibition ((+)-N-3-Benzylnirvanol) ([9]; HLM(LBA)+CYP2E1): 78 ± 36%
- Maximal inhibition ((+)-N-3-Benzylnirvanol) ([9]; HLM(LBA)): 57 ± 10%
- Maximal inhibition ((+)-N-3-Benzylnirvanol) ([9]; HLM(LFJ)+CYP2E1): 95 ± 6%
- Maximal inhibition ((+)-N-3-Benzylnirvanol) ([9]; HLM(LFJ)): 79 ± 22%
- Maximal inhibition ((+)-N-3-Benzylnirvanol) ([9]; HLM(NQO)): 78 ± 43%
- Maximal inhibition ((+)-N-3-Benzylnirvanol) ([9]; HLM(ODN)): 65 ± 4%
- IC50 ([9]; HLM(FVT)): 11 ± 4 µM
- IC50 ([9]; HLM(IHG)): 16 ± 2 µM
- IC50 ([9]; HLM(LBA)+CYP2E1): 26 ± 10 µM
- IC50 ([9]; HLM(LBA)): 0.51 ± 0.03 µM
- IC50 ([9]; HLM(LFJ)+CYP2E1): 12 ± 2 µM
- IC50 ([9]; HLM(LFJ)): 0.49 ± 0.12 µM
- IC50 ([9]; HLM(NQO)): 0.46 ± 0.39 µM
- IC50 ([9]; HLM(ODN)): 19 ± 15 µM
- Maximal inhibition ((+)-N-3-Benzylnirvanol) ([10]; SS(3A4), 30 μM C152): 59 ± 10%
- IC50 ([10]; read-out: IC50 ((+)-N-3-Benzylnirvanol), SS(3A4), 30 μM C152): 27 ± 3 µM
- Maximal inhibition ((+)-N-3-Benzylnirvanol) ([11]; SS(2B6), 30 μM C152): 81 ± 7%
- IC50 ([11]; read-out: IC50 ((+)-N-3-Benzylnirvanol), SS(2B6), 30 μM C152): 8.5 ± 2.3 µM
- Maximal inhibition ((+)-N-3-Benzylnirvanol) [12]: 78 ± 21%
- IC50 ([12]; read-out: IC50 ((+)-N-3-Benzylnirvanol)): 6.6 ± 1.5 µM

Structure (SMILES): O=c1ccc2ccccc2o1 [Coumarin, coumarin]
- N [13]: 1.66 ± 0.41
- Vmax [13]: 5.6 ± 0.5 min⁻¹

Structure (SMILES): Clc1ccccc1C(c1ccccc1)(c1ccccc1)n1ccnc1 [Clotrimazole]
- IC50 with CYP3A4 lower than the values observed with CYP2B6 and CYP2C19 [14]: 1–2 orders of magnitude
- IC50 [15]: 0.164 ± 0.039 µM
- IC50 ([16]; read-out: IC50 (Clotrimazole), SS(2C19), 30 μM C152): 0.202 ± 0.113 µM

Structure (SMILES): Clc1ccc(Cc2ccncc2)cc1
- Maximal inhibition ([9]; HLM(FVT)+CYP3A5 (12.5% of total P450)): 89 ± 8%
- Maximal inhibition ([9]; HLM(FVT)): 79 ± 17%
- Maximal inhibition ([9]; HLM(IHG)): 90 ± 3%
- Maximal inhibition ([9]; HLM(LBA)): 88 ± 12%
- Maximal inhibition ([9]; HLM(LFJ)): 84 ± 23%
- Maximal inhibition ([9]; HLM(NQO)): 92 ± 4%
- Maximal inhibition ([9]; HLM(ODN)+CYP3A5 (12.5% of total P450)): 70 ± 3%
- Maximal inhibition ([9]; HLM(ODN)): 91 ± 2%
- IC50 [10]: 0.225 ± 0.073 µM
- IC50 [11]: 0.035 ± 0.01 µM
- Maximal inhibition ([11]; SS(2B6), 30 μM C152): 95 ± 3%
- IC50 [16]: 0.215 ± 0.118 µM
